Data taken from ChEMBL document CHEMBL6153028, “Understanding the synergistic sensitization of natural products and antibiotics: An effective strategy to combat MRSA” (2025).

Key:
Type in all cases: functional
[1] = system: Staphylococcus aureus; assay: Synergistic antibacterial activity against methicillin-resistant Staphylococcus aureus assessed as fractional inhibitory concentration index incubated for 24 hrs in presence of cefazolin by checkerboard assay
[2] = system: Staphylococcus aureus; assay: Synergistic antimicrobial activity against methicillin resistant Staphylococcus aureus assessed as fractional inhibitory concentration index incubated for 24 hrs in presence of Oxacillin by checkerboard assay
[3] = system: Staphylococcus aureus; assay: Synergistic antibacterial activity against methicillin resistant Staphylococcus aureus assessed as fractional inhibitory concentration index in presence of ampicillin
[4] = system: Staphylococcus aureus; assay: Synergistic antimicrobial activity against methicillin-resistant Staphylococcus aureus assessed as fractional inhibitory concentration index in presence of vancomycin by checkerboard assay
[5] = system: Staphylococcus aureus; assay: Synergistic antibacterial activity against Staphylococcus aureus assessed as fractional inhibitory concentration index incubated for 24 hrs in presence of ampicillin by checkerboard assay
[6] = system: Staphylococcus aureus; assay: Synergistic antibacterial activity against methicillin resistant Staphylococcus aureus assessed as fractional inhibitory concentration index in presence of kanamycin incubated for 24 hrs by checkerboard assay
[7] = system: Staphylococcus aureus; assay: Synergistic antibacterial activity against methicillin resistant Staphylococcus aureus assessed as fractional inhibitory concentration index in presence of oxacillin incubated for 24 hrs by checkerboard assay
[8] = system: Staphylococcus aureus; assay: Synergistic antibacterial activity against methicillin-resistant Staphylococcus aureus assessed as fractional inhibitory concentration index incubated for 24 hrs in presence of vancomycin by checkerboard assay
[9] = system: Staphylococcus aureus; assay: Synergistic antimicrobial activity against methicillin-resistant Staphylococcus aureus assessed as fractional inhibitory concentration index in presence of gentamicin by checkerboard assay
[10] = system: Staphylococcus aureus; assay: Synergistic antimicrobial activity against methicillin resistant Staphylococcus aureus assessed as fractional inhibitory concentration index incubated for 24 hrs in presence of amikacin by checkerboard assay
[11] = system: Staphylococcus aureus; assay: Synergistic antimicrobial activity against methicillin resistant Staphylococcus aureus 43300 assessed as fractional inhibitory concentration index incubated for 24 hrs in presence of norfloxacin by checkerboard assay
[12] = system: Staphylococcus aureus; assay: Synergistic antimicrobial activity against methicillin-resistant Staphylococcus aureus assessed as fractional inhibitory concentration index in presence of gentamicin incubated for 24 hrs by checkerboard assay
[13] = system: Staphylococcus aureus; assay: Synergistic antimicrobial activity against methicillin resistant Staphylococcus aureus 43300 assessed as fractional inhibitory concentration index incubated for 24 hrs in presence of imipenem by checkerboard assay
[14] = system: Staphylococcus aureus; assay: Synergistic antimicrobial activity against methicillin resistant Staphylococcus aureus 43300 assessed as fractional inhibitory concentration index incubated for 24 hrs in presence of cefotaxime by checkerboard assay
[15] = system: Staphylococcus aureus; assay: Synergistic antimicrobial activity against methicillin resistant Staphylococcus aureus 43300 assessed as fractional inhibitory concentration index incubated for 24 hrs in presence of Cefuroxime by checkerboard assay
[16] = system: Staphylococcus aureus; assay: Synergistic antimicrobial activity against methicillin-resistant Staphylococcus aureus CCARM 3089 assessed as fractional inhibitory concentration index in presence of oxacillin incubated for 24 hrs by checkerboard assay
[17] = system: Staphylococcus aureus; assay: Synergistic antimicrobial activity against methicillin resistant Staphylococcus aureus 43300 assessed as fractional inhibitory concentration index incubated for 24 hrs in presence of Vancomycin by checkerboard assay
[18] = system: Staphylococcus aureus; assay: Synergistic antimicrobial activity against methicillin resistant Staphylococcus aureus 43300 assessed as fractional inhibitory concentration index incubated for 24 hrs in presence of Penicillin by checkerboard assay
[19] = system: Staphylococcus aureus; assay: Synergistic antibacterial activity against methicillin-resistant Staphylococcus aureus assessed as fractional inhibitory concentration index in presence of cefoxitin
[20] = system: Staphylococcus aureus; assay: Synergistic antimicrobial activity against methicillin resistant Staphylococcus aureus 43300 assessed as fractional inhibitory concentration index incubated for 24 hrs in presence of Oxacillin by checkerboard assay
[21] = system: Staphylococcus aureus; assay: Synergistic antibacterial activity against methicillin-resistant Staphylococcus aureus 4806 assessed as fractional inhibitory concentration index incubated for 24 hrs in presence of ampicillin by checkerboard assay
[22] = system: Staphylococcus aureus; assay: Synergistic antibacterial activity against methicillin-resistant Staphylococcus aureus assessed as fractional inhibitory concentration index incubated for 24 hrs in presence of ampicillin by checkerboard assay
[23] = system: Staphylococcus aureus; assay: Synergistic antibacterial activity against methicillin resistant Staphylococcus aureus assessed as fractional inhibitory concentration index in presence of ciprofloxacin
[24] = system: Staphylococcus aureus; assay: Synergistic antibacterial activity against methicillin resistant Staphylococcus aureus assessed as fractional inhibitory concentration index in presence of norfloxacin; conditions: time 24 hrs
[25] = system: Staphylococcus aureus; assay: Synergistic antimicrobial activity against methicillin resistant Staphylococcus aureus assessed as fractional inhibitory concentration index incubated for 24 hrs in presence of oxytetracycline by checkerboard assay
[26] = system: Staphylococcus aureus; assay: Synergistic antimicrobial activity against methicillin resistant Staphylococcus aureus assessed as fractional inhibitory concentration index incubated for 24 hrs in presence of sulbactam by checkerboard assay
[27] = system: Staphylococcus aureus; assay: Synergistic antimicrobial activity against methicillin-resistant Staphylococcus aureus assessed as fractional inhibitory concentration index incubated for 24 hrs in presence of ampicillin by checkerboard assay
[28] = system: Staphylococcus aureus; assay: Synergistic antimicrobial activity against methicillin resistant Staphylococcus aureus assessed as fractional inhibitory concentration index incubated for 24 hrs in presence of Fosfomycin by checkerboard assay
[29] = system: Staphylococcus aureus; assay: Synergistic antibacterial activity against methicillin resistant Staphylococcus aureus assessed as fractional inhibitory concentration index incubated for 24 hrs in presence of levofloxacin by broth microdilution checkboard assay
[30] = system: Staphylococcus aureus; assay: Synergistic antibacterial activity against methicillin-resistant Staphylococcus aureus assessed as fractional inhibitory concentration index incubated for 24 hrs in presence of fusidic acid by checkerboard assay
[31] = system: Staphylococcus aureus; assay: Synergistic antibacterial activity against methicillin-resistant Staphylococcus aureus assessed as fractional inhibitory concentration index in presence of azithromycin
[32] = system: Staphylococcus aureus; assay: Synergistic antimicrobial activity against methicillin resistant Staphylococcus aureus 43300 assessed as fractional inhibitory concentration index incubated for 24 hrs in presence of Gentamicin by checkerboard assay
[33] = system: Staphylococcus aureus; assay: Synergistic antimicrobial activity against methicillin resistant Staphylococcus aureus assessed as fractional inhibitory concentration index incubated for 24 hrs in presence of Norfloxacin by checkerboard assay

COc1ccc2cc1Oc1ccc(cc1)C[C@H]1c3cc(c(OC)cc3CCN1C)Oc1c(O)c(OC)cc3c1[C@H]2N(C)CC3
fractional inhibitory concentration index (FICI) [1]: 0.25

C[C@H]1[C@H](OC(=O)CCC(=O)O)O[C@@H]2O[C@@]3(C)CC[C@H]4[C@H](C)CC[C@@H]1[C@@]24OO3 [ARTESUNATE]
fractional inhibitory concentration index (FICI) [2]: <0.5

COc1ccc2cc1Oc1ccc(cc1)C[C@H]1c3cc(c(OC)cc3CCN1C)Oc1c(OC)c(OC)cc3c1[C@H]2N(C)CC3
fractional inhibitory concentration index (FICI) [1]: 0.188

C[C@H]1[C@H](C)CC[C@]2(C(=O)O)CC[C@]3(C)C(=CC[C@@H]4[C@@]5(C)CC[C@H](O)C(C)(C)[C@@H]5CC[C@]43C)[C@H]12 [URSOLIC ACID]
fractional inhibitory concentration index (FICI) [3]: <0.5 | fractional inhibitory concentration index (FICI) [2]: <0.5

C=C(C)[C@@H]1CC[C@]2(C(=O)O)CC[C@]3(C)[C@H](CC[C@@H]4[C@@]5(C)CC[C@H](O)C(C)(C)[C@@H]5CC[C@]43C)[C@@H]12 [BETULINIC ACID]
fractional inhibitory concentration index (FICI) [4]: 0.5

CC1=C(C)[C@H]2C3=CC[C@@H]4[C@@]5(C)CC[C@H](O)C(C)(C)[C@@H]5CC[C@@]4(C)[C@]3(C)CC[C@@]2(C(=O)O)CC1
fractional inhibitory concentration index (FICI) [5]: 0.5 | fractional inhibitory concentration index (FICI) [2]: 0.38

CC(C)=CCc1c(O)ccc(-c2oc3cc(O)cc(O)c3c(=O)c2CC=C(C)C)c1O
fractional inhibitory concentration index (FICI) [6]: 0.5 | fractional inhibitory concentration index (FICI) [7]: 0.375

O=C/C=C/c1ccccc1 [CINNAMALDEHYDE]
fractional inhibitory concentration index (FICI) [8]: 0.25 | fractional inhibitory concentration index (FICI) [9]: 0.37 | fractional inhibitory concentration index (FICI) [2]: 0.25 | fractional inhibitory concentration index (FICI) [10]: 0.19

COc1cc(C)c2c(c1C)OC(=O)c1c(C)c(Cl)c(O)c(C=O)c1O2
fractional inhibitory concentration index (FICI) [9]: 0.25 | fractional inhibitory concentration index (FICI) [2]: 0.312

COc1cc2c(cc1O)CC[n+]1cc3c(OC)c(OC)ccc3cc1-2.[I-]
fractional inhibitory concentration index (FICI) [11]: 0.375

CC(C)=CCC/C(C)=C/Cc1cc(C2CC(=O)c3c(O)cc(O)cc3O2)c(O)cc1O (configuration not stated) [KUWANON E]
fractional inhibitory concentration index (FICI) [6]: 0.5

CC1=CCC[C@@H]2[C@@](C)(C[C@H](O)C3=CC(=O)OC3O)[C@H](C)CC[C@@]12C (some centres not stated)
fractional inhibitory concentration index (FICI) [2]: 0.125

C[C@@H]1O[C@@H](O[C@H]2[C@H](O[C@H]3CC[C@]4(C)[C@H]5CC=C6[C@@H]7CC(C)(C)CC[C@]7(C(=O)O)CC[C@@]6(C)[C@]5(C)CC[C@H]4C3(C)C)OC[C@H](O)[C@@H]2O)[C@H](O)[C@H](O)[C@H]1O
fractional inhibitory concentration index (FICI) [2]: 0.28

CC(C)c1cc2c(c(O)c1O)[C@@]1(C(=O)O)CCCC(C)(C)[C@@H]1CC2 [CARNOSIC ACID]
fractional inhibitory concentration index (FICI) [12]: 0.5

O=C1C=CC(=O)c2ccccc21 [NAPHTHOQUINONE]
fractional inhibitory concentration index (FICI) [13]: 0.5 | fractional inhibitory concentration index (FICI) [14]: 0.062 | fractional inhibitory concentration index (FICI) [15]: 0.06

O=C(O[C@@H]1O[C@@H]2COC(=O)c3cc(O)c(O)c(O)c3-c3c(cc(O)c(O)c3O)C(=O)O[C@H]2[C@H](OC(=O)c2cc(O)c(O)c(O)c2)[C@H]1OC(=O)c1cc(O)c(O)c(O)c1)c1cc(O)c(O)c(O)c1 [EUGENIIN]
fractional inhibitory concentration index (FICI) [16]: 0.395

CC(C)=CCc1c(-c2ccc(O)cc2O)oc2c3c(cc(O)c2c1=O)OC(C)(C)C=C3 [MORUSIN]
fractional inhibitory concentration index (FICI) [6]: 0.5 | fractional inhibitory concentration index (FICI) [7]: 0.375

CNC1CC[C@@]2(C)C(=CC[C@H]3C4CCC5[C@H](C)NC[C@@]54CC[C@@H]32)C1 (some centres not stated)
fractional inhibitory concentration index (FICI) [17]: 0.116 | FIC [18]: 0.116

C=C(C)[C@@H]1CC[C@]2(C=O)CC[C@]3(C)[C@H](CC[C@@H]4[C@@]5(C)CC[C@H](O)C(C)(C)[C@@H]5CC[C@]43C)[C@@H]12 [BETULINALDEHYDE]
fractional inhibitory concentration index (FICI) [4]: 0.5

CC(C)=CC[C@@H](O)C1=CC(=O)c2c(O)ccc(O)c2C1=O [SHIKONIN]
fractional inhibitory concentration index (FICI) [9]: 0.5 | fractional inhibitory concentration index (FICI) [19]: 0.57 | fractional inhibitory concentration index (FICI) [10]: 0.37

COc1ccc2c(c[n+](C)c3c4cc5c(cc4ccc23)OCO5)c1OC.[Cl-] [CHELERYTHRINE CHLORIDE]
fractional inhibitory concentration index (FICI) [20]: 0.5

COc1ccc2c(c1OC)C(CC(C)=O)N(C)c1c-2ccc2cc3c(cc12)OCO3 (configuration not stated)
fractional inhibitory concentration index (FICI) [5]: 0.5

COc1c(O)ccc2c1C(CC(C)=O)N(C)c1c-2ccc2cc3c(cc12)OCO3 (configuration not stated)
fractional inhibitory concentration index (FICI) [21]: 0.375 | fractional inhibitory concentration index (FICI) [22]: 0.5 | fractional inhibitory concentration index (FICI) [5]: 0.5

C[C@H]1C2CCC3[C@@H]4CC=C5CC(N(C)C)CC[C@]5(C)[C@H]4CC[C@@]32CN1C=O (some centres not stated)
fractional inhibitory concentration index (FICI) [17]: 0.502 | fractional inhibitory concentration index (FICI) [18]: 0.116

Oc1cc(O)cc(/C=C/c2ccc(O)cc2O)c1 [OXYRESVERATROL]
fractional inhibitory concentration index (FICI) [8]: 0.37 | fractional inhibitory concentration index (FICI) [23]: 0.37

O=c1c(-c2ccc(O)cc2)coc2cc(O)cc(O)c12 [GENISTEIN]
fractional inhibitory concentration index (FICI) [24]: 0.38

O=C(O[C@@H]1Cc2c(O)cc(O)cc2O[C@@H]1c1cc(O)c(O)c(O)c1)c1cc(O)c(O)c(O)c1 [EPIGALOCATECHIN GALLATE]
fractional inhibitory concentration index (FICI) [25]: 0.288 | fractional inhibitory concentration index (FICI) [26]: 0.19 | fractional inhibitory concentration index (FICI) [27]: 0.19

O=C(O)c1cc(O)c2c(c1)C(=O)c1cccc(O)c1C2=O [RHEIN]
fractional inhibitory concentration index (FICI) [2]: 0.37

C=CCc1ccc(O)c(-c2ccc(O)c(CC=C)c2)c1 [HONOKIOL]
fractional inhibitory concentration index (FICI) [28]: <0.5 | fractional inhibitory concentration index (FICI) [10]: <0.5

CC1(C)CC[C@]2(C(=O)O)CC[C@]3(C)C(=CC[C@@H]4[C@@]5(C)CC[C@H](O)C(C)(C)[C@@H]5CC[C@]43C)[C@@H]2C1 [OLEANOLIC_ACID]
fractional inhibitory concentration index (FICI) [3]: <0.5 | fractional inhibitory concentration index (FICI) [2]: <0.5

C=CCc1ccc(O)c(-c2cc(CC=C)ccc2O)c1 [MAGNOLOL]
fractional inhibitory concentration index (FICI) [28]: <0.5

COc1ccc2cc3[n+](cc2c1OC)CCc1cc2c(cc1-3)OCO2.[Cl-] [BERBERINE CHLORIDE]
fractional inhibitory concentration index (FICI) [29]: 0.375 | fractional inhibitory concentration index (FICI) [30]: 0.19 | fractional inhibitory concentration index (FICI) [31]: 0.188

O=C(/C=C/C=C/c1ccc2c(c1)OCO2)N1CCCCC1 [PIPERINE]
fractional inhibitory concentration index (FICI) [32]: 0.5

C[C@H]1COC2=C1C(=O)C(=O)c1c2ccc2c1CCCC2(C)C [CRYPTOTANSHINONE]
fractional inhibitory concentration index (FICI) [8]: 0.37 | fractional inhibitory concentration index (FICI) [2]: 0.312

CC(C)=CCc1c(-c2ccc(O)cc2O)oc2c(CC=C(C)C)c(O)cc(O)c2c1=O [KUWANON C]
fractional inhibitory concentration index (FICI) [6]: 0.375 | fractional inhibitory concentration index (FICI) [7]: 0.5

O=C(OCC1O[C@H](OC(=O)c2cc(O)c(O)c(O)c2)[C@@H](O)[C@H](OC(=O)c2cc(O)c(O)c(O)c2)[C@H]1O)c1cc(O)c(O)c(O)c1 (some centres not stated)
fractional inhibitory concentration index (FICI) [33]: 0.31 | fractional inhibitory concentration index (FICI) [2]: <0.5
